Among the test systems are SNB-19; U-251; PC-3; HOP-92; KM12; M14; MDA-MB-231; LOX IMVI; HT-29; Hs-578T; NCI-H522; A549; HCT-15; MDA-MB-435; SF-539; SK-MEL-28; SR; K562; NCI/ADR-RES; RXF 393.
Test in all cases: NCI anticancer screen, dose series, 48 h

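Following 48 hours of exposure in 96-well plates, responses at five concentrations were used to interpolate endpoints linearly. The concentration for 50% growth inhibition is given as GI50.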 Active and inactive are the calls of the source. No stated cut-off is given here; in the data, active = GI50 up to about 1.1 µM and inactive = higher.

As to `CC(C)c1ccc2c(c1)CCC1C(C)(CN)CCCC21C` (centres undefined), the GI50 was 1.77 µM (inactive) with SNB-19; 1.38 µM (inactive) in the assay with U-251; 1.59 µM (inactive) in the assay with PC-3; 1.55 µM (inactive) in the assay on HOP-92; 1.69 µM (inactive) with KM12; 1.67 µM (inactive) in the assay with M14. Besides, the GI50 was 1.42 µM (inactive) in the assay with MDA-MB-231; 1.43 µM (inactive) in the assay on LOX IMVI; 0.914 µM (active) with HT-29; 1.63 µM (inactive) with Hs-578T; 1.79 µM (inactive) in the assay on NCI-H522; 1.8 µM (inactive) in the assay with A549. The GI50 in the assay with HCT-15 is 1.54 µM; with MDA-MB-435, 1.44 µM (inactive); in the assay with SF-539 it was 1.79 µM (inactive); with SK-MEL-28, 1.73 µM (inactive); in the assay with SR, 1.1 µM (active); in the assay with K562, 0.551 µM (active). Moreover, the GI50 is 1.64 µM (inactive) with NCI/ADR-RES and 1.56 µM (inactive) in the assay with RXF 393.

As to `O=C(NC/C(Cl)=C/Cl)Nc1cccc2c1CCCC2`, the GI50 is > 100 µM (inactive) with SNB-19; > 100 µM (inactive) with U-251; 74.5 µM (inactive) in the assay on PC-3; 55.7 µM (inactive) with HOP-92; > 100 µM (inactive) in the assay with KM12; > 100 µM (inactive) in the assay with M14. For the same compound, the GI50 in the assay with MDA-MB-231 was > 100 µM (inactive); in the assay on LOX IMVI it was > 100 µM (inactive); with HT-29 it was 38.5 µM (inactive); with Hs-578T it was > 100 µM (inactive); in the assay on NCI-H522, > 100 µM (inactive); in the assay on A549, > 100 µM (inactive). Further, the GI50 in the assay on HCT-15 is above 100 µM; in the assay on MDA-MB-435, > 100 µM (inactive); in the assay with SF-539, > 100 µM (inactive); with SK-MEL-28, > 100 µM (inactive); in the assay on SR, 35.9 µM (inactive); in the assay on NCI/ADR-RES, > 100 µM (inactive). Also, the GI50 in the assay on RXF 393 was > 100 µM (inactive).

Turning to `Cc1ccc(C(=O)O)cc1S(=O)(=O)Nn1cnc2ccc(S(=O)(=O)Nc3ccccc3C(=O)O)cc2c1=O`, the GI50 in the assay with SNB-19 was > 100 µM (inactive); with U-251, > 100 µM (inactive); in the assay on PC-3, 16.6 µM (inactive); in the assay with HOP-92, > 100 µM (inactive); in the assay on KM12, 10.9 µM (inactive); in the assay on M14, 18.3 µM (inactive). Besides, the GI50 in the assay on MDA-MB-231, in the assay on LOX IMVI, with HT-29, in the assay with Hs-578T, in the assay with NCI-H522 and in the assay on A549 was > 100 µM (inactive) throughout. Besides, the GI50 is above 100 µM with HCT-15; > 100 µM (inactive) with MDA-MB-435; > 100 µM (inactive) in the assay with SF-539; > 100 µM (inactive) in the assay with SK-MEL-28; > 100 µM (inactive) in the assay with SR; 1.78 µM (inactive) in the assay with K562. In addition, the GI50 in the assay on NCI/ADR-RES is > 100 µM (inactive).

As for `N#CC(C#N)=C1C(=Cc2ccc(OCCCCCCCCCCSSCCCCCCCCCCOc3ccc(C=C4C(=C(C#N)C#N)c5ccccc5C4=C(C#N)C#N)cc3)cc2)C(=C(C#N)C#N)c2ccccc21`, the GI50 with U-251 is 19.5 µM (inactive); in the assay on PC-3, 20.8 µM (inactive); with HOP-92 it was 17.7 µM (inactive); in the assay on KM12, 25.4 µM (inactive); in the assay with M14 it was 20.3 µM (inactive); with MDA-MB-231 it was 28.6 µM (inactive). Moreover, the GI50 is 18.5 µM (inactive) in the assay with LOX IMVI; 19.2 µM (inactive) in the assay with HT-29; 20.4 µM (inactive) in the assay with Hs-578T; 17.8 µM (inactive) in the assay with NCI-H522; 15.5 µM (inactive) in the assay with A549; 16.7 µM in the assay on HCT-15. Moreover, the GI50 in the assay with MDA-MB-435 is 38.7 µM (inactive); in the assay with SF-539, 16.1 µM (inactive); with SK-MEL-28, 21.6 µM (inactive); in the assay with SR, 19.2 µM (inactive); in the assay on K562, 23.7 µM (inactive); in the assay on NCI/ADR-RES it was 19.3 µM (inactive). Moreover, in the assay with RXF 393, the GI50 was 22.6 µM (inactive).

Regarding `C=Cc1c(C)c(OC)cc2c1Oc1ccc(OC)c(C)c1CC2`, the GI50 with SNB-19 is > 100 µM (inactive); with U-251, > 100 µM (inactive); with PC-3, 52.6 µM (inactive); in the assay on HOP-92 it was > 100 µM (inactive); with KM12, > 100 µM (inactive); in the assay on M14 it was > 100 µM (inactive). The GI50 was > 100 µM (inactive) with MDA-MB-231; > 100 µM (inactive) with HT-29; > 100 µM (inactive) in the assay with Hs-578T; 88.5 µM (inactive) in the assay on NCI-H522; > 100 µM (inactive) with A549; above 100 µM in the assay on HCT-15. Also, the GI50 was 76 µM (inactive) in the assay on MDA-MB-435; > 100 µM (inactive) with SF-539; > 100 µM (inactive) with SK-MEL-28; > 100 µM (inactive) with SR; > 100 µM (inactive) in the assay with K562; 49.1 µM (inactive) in the assay on NCI/ADR-RES. For the same compound, the GI50 with RXF 393 was > 100 µM (inactive).

Turning to `CC(C)(CN1CCCCC1)C(=O)CC(SCCS(=O)(=O)O)c1ccc(Cl)cc1` (centres undefined), the GI50 with SNB-19 was 14.8 µM (inactive); in the assay on U-251 it was 10.5 µM (inactive); in the assay on PC-3, 4.44 µM (inactive); in the assay on HOP-92, 2.26 µM (inactive); with KM12, 4.31 µM (inactive); with M14, 3.19 µM (inactive). In addition, the GI50 in the assay with MDA-MB-231 was 3.1 µM (inactive); in the assay with HT-29, 3.52 µM (inactive); in the assay on Hs-578T it was 3.2 µM (inactive); in the assay with NCI-H522, 2.51 µM (inactive); in the assay on A549, 6.56 µM (inactive); in the assay on HCT-15 it was 2.19 µM. The GI50 in the assay on MDA-MB-435 was 3.48 µM (inactive); with SF-539, 2.3 µM (inactive); in the assay with SR it was 2.18 µM (inactive); in the assay on K562 it was 3.09 µM (inactive); in the assay on NCI/ADR-RES, 5.97 µM (inactive); with RXF 393, 3.1 µM (inactive).

As for `N/C(=N\O)NCCN1CCCCCCC1`, the GI50 in the assay with SNB-19 was > 100 µM (inactive); in the assay on PC-3 it was 28.4 µM (inactive); in the assay on HOP-92, > 100 µM (inactive); in the assay on KM12, > 100 µM (inactive); with M14 it was > 100 µM (inactive); in the assay on MDA-MB-231 it was > 100 µM (inactive). Besides, the GI50 with LOX IMVI was > 100 µM (inactive); with HT-29, > 100 µM (inactive); in the assay with Hs-578T, > 100 µM (inactive); with NCI-H522 it was > 100 µM (inactive); with A549, > 100 µM (inactive); with HCT-15, above 100 µM. Besides, the GI50 with MDA-MB-435, with SF-539, with SK-MEL-28, with SR, in the assay with K562 and with NCI/ADR-RES was > 100 µM (inactive) each time. The GI50 in the assay on RXF 393 was > 100 µM (inactive).

As to `COC(OC)[C@@H]1OC[C@@H](O)[C@@H]1n1cnc2c(N)ncnc21`, the GI50 with U-251, with PC-3, in the assay on HOP-92, in the assay with KM12, in the assay on M14 and with MDA-MB-231 was > 100 µM (inactive) throughout. In addition, the GI50 in the assay on LOX IMVI is > 100 µM (inactive); in the assay with HT-29, > 100 µM (inactive); with Hs-578T, > 100 µM (inactive); in the assay on NCI-H522, > 100 µM (inactive); in the assay on HCT-15 it was above 100 µM; in the assay with MDA-MB-435, > 100 µM (inactive). Also, the GI50 with SF-539, with SK-MEL-28, in the assay on SR, in the assay on K562, in the assay with NCI/ADR-RES and in the assay with RXF 393 was > 100 µM (inactive) throughout.

Turning to `CCOC(=O)/C=C(/C(=O)OCC)n1ccc(=O)n(Cc2cnnn2CCCCOC(C)=O)c1=O`, the GI50 was > 100 µM (inactive) with SNB-19; > 100 µM (inactive) with U-251; > 100 µM (inactive) with PC-3; 0.0305 µM (active) in the assay with HOP-92; > 100 µM (inactive) in the assay on KM12; > 100 µM (inactive) in the assay on MDA-MB-231. In addition, the GI50 in the assay with LOX IMVI is > 100 µM (inactive); with HT-29 it was > 100 µM (inactive); with Hs-578T, > 100 µM (inactive); with NCI-H522, 20.7 µM (inactive); in the assay on A549 it was > 100 µM (inactive); with HCT-15, above 10 µM. Moreover, the GI50 is > 100 µM (inactive) with MDA-MB-435; 36.6 µM (inactive) with SF-539; > 100 µM (inactive) in the assay on SK-MEL-28; 27.9 µM (inactive) in the assay on SR; 70.1 µM (inactive) in the assay on K562; > 100 µM (inactive) with NCI/ADR-RES. For the same compound, in the assay on RXF 393, the GI50 is > 100 µM (inactive).

For `COc1cc2cc(C(=O)N3CC(CCl)c4c3cc([N+](C)(C)Cc3ccc([N+](=O)[O-])n3C)c3ccccc43)[nH]c2c(OC)c1OC` (centres undefined), the GI50 in the assay with SNB-19 is 3.44 µM (inactive); in the assay with U-251, 2.33 µM (inactive); in the assay on PC-3, 0.184 µM (active); in the assay with HOP-92, 0.619 µM (active); in the assay with KM12 it was 2.14 µM (inactive); with M14 it was 3.61 µM (inactive). For the same compound, the GI50 in the assay with MDA-MB-231 was 2.42 µM (inactive); in the assay on LOX IMVI it was 2.31 µM (inactive); in the assay with HT-29, 1.29 µM (inactive); with Hs-578T, 6.76 µM (inactive); in the assay on NCI-H522, 0.0638 µM (active); with A549, 0.074 µM (active). Besides, the GI50 with HCT-15 is 1.58 µM; in the assay on MDA-MB-435, 3.79 µM (inactive); in the assay on SF-539 it was 2.02 µM (inactive); in the assay on SK-MEL-28, 2.33 µM (inactive); in the assay on SR, < 0.0385 µM (active); with NCI/ADR-RES, 0.849 µM (active). Besides, the GI50 in the assay on RXF 393 is 0.0107 µM (active).

The values above are taken from ChEMBL document CHEMBL1201862, “PubChem BioAssay data set” (2004).
